Experimental data taken from PubChem BioAssay AID1963438 (Molecular Pharmacology Branch, DTP, NCI, 2024).
Values joined by “and” are separate entries in the source; they are usually repeats but may differ in a detail not shown here. Equal entries are not always repeated.

Tested on: NCI-H510 multicellular tumor spheroid growth, % test/control
Assay: Anticancer human tumor NCI-H510 cell line growth inhibition [Asc];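 note: spheroids exposed to agents for 7 days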;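 for viability, T/C: 100% = DMSO vehicle control wells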
Settings: for viability, T/C: stronger effect = lower value; active = viability on the fitted dose curve at most 10% of control; inactive = the rest
How it was run: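 Tumor cells were grown as complex spheroids with human endothelial cells (HUVEC) and human mesenchymal stem cells as stroma. Agents were tested alone and in combination, in half-log steps down from the clinical Cmax, or from 10 microM where Cmax was unknown.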

[1] = curve of first compound, second compound 0.01 µM
[2] = curve of first compound, second compound 0.0316 µM
[3] = curve of first compound, second compound 0.1 µM
[4] = curve of first compound, second compound 0.316 µM
[5] = curve of first compound, second compound 1 µM
[6] = second compound 0.01 µM, first compound 0.0316 µM
[7] = second compound 0.01 µM, first compound 0.1 µM
[8] = second compound 0.01 µM, first compound 0.316 µM
[9] = second compound 0.01 µM, first compound 1 µM
[10] = second compound 0.0316 µM, first compound 0.0316 µM
[11] = second compound 0.0316 µM, first compound 0.1 µM
[12] = second compound 0.0316 µM, first compound 0.316 µM
[13] = second compound 0.0316 µM, first compound 1 µM
[14] = second compound 0.1 µM, first compound 0.0316 µM
[15] = second compound 0.1 µM, first compound 0.1 µM
[16] = second compound 0.1 µM, first compound 0.316 µM
[17] = second compound 0.1 µM, first compound 1 µM
[18] = second compound 0.316 µM, first compound 0.0316 µM
[19] = second compound 0.316 µM, first compound 0.1 µM
[20] = second compound 0.316 µM, first compound 0.316 µM
[21] = second compound 0.316 µM, first compound 1 µM
[22] = second compound 1 µM, first compound 0.0316 µM
[23] = second compound 1 µM, first compound 0.1 µM
[24] = second compound 1 µM, first compound 0.316 µM
[25] = second compound 1 µM, first compound 1 µM

NC(=O)C(=Cn1cnc(-c2cc(C(F)(F)F)cc(C(F)(F)F)c2)n1)c1cncnc1 + CNC(C)C(=O)NC1CN(S(=O)(=O)c2cccc(S(=O)(=O)N3CCC4CCC(C(=O)NC(c5ccccc5)c5ccccc5)N4C(=O)C(NC(=O)C(C)NC)C3)c2)CCC2CCC(C(=O)NC(c3ccccc3)c3ccccc3)N2C1=O
> 300 nM: IC50 [1] | IC50 [2] | IC50 [3] | IC50 [4] | IC50 [5]
inactive: viability, T/C (second compound 0.01 µM, first compound 0.000949 µM) 104% | viability, T/C (second compound 0.01 µM, first compound 0.003 µM) 112% | viability, T/C (second compound 0.01 µM, first compound 0.00949 µM) 104% | viability, T/C (second compound 0.01 µM, first compound 0.03 µM) 92.3% | viability, T/C (second compound 0.01 µM, first compound 0.0949 µM) 110% | viability, T/C (second compound 0.01 µM, first compound 0.3 µM) 101% | viability, T/C (second compound 0.0316 µM, first compound 0.000949 µM) 92.3% | viability, T/C (second compound 0.0316 µM, first compound 0.003 µM) 101% | viability, T/C (second compound 0.0316 µM, first compound 0.00949 µM) 102% | viability, T/C (second compound 0.0316 µM, first compound 0.03 µM) 108% | viability, T/C (second compound 0.0316 µM, first compound 0.0949 µM) 112% | viability, T/C (second compound 0.0316 µM, first compound 0.3 µM) 108% | viability, T/C (second compound 0.1 µM, first compound 0.000949 µM) 110% | viability, T/C (second compound 0.1 µM, first compound 0.003 µM) 94.5% | viability, T/C (second compound 0.1 µM, first compound 0.00949 µM) 107% | viability, T/C (second compound 0.1 µM, first compound 0.03 µM) 110% | viability, T/C (second compound 0.1 µM, first compound 0.0949 µM) 112% | viability, T/C (second compound 0.1 µM, first compound 0.3 µM) 96.8% | viability, T/C (second compound 0.316 µM, first compound 0.000949 µM) 115% | viability, T/C (second compound 0.316 µM, first compound 0.003 µM) 116% | viability, T/C (second compound 0.316 µM, first compound 0.00949 µM) 109% | viability, T/C (second compound 0.316 µM, first compound 0.03 µM) 87.3% | viability, T/C (second compound 0.316 µM, first compound 0.0949 µM) 109% | viability, T/C (second compound 0.316 µM, first compound 0.3 µM) 95.9% | viability, T/C (second compound 1 µM, first compound 0.000949 µM) 93.7% | viability, T/C (second compound 1 µM, first compound 0.003 µM) 107% | viability, T/C (second compound 1 µM, first compound 0.00949 µM) 93.6% | viability, T/C (second compound 1 µM, first compound 0.03 µM) 104% | viability, T/C (second compound 1 µM, first compound 0.0949 µM) 105% | viability, T/C (second compound 1 µM, first compound 0.3 µM) 92.9%

CCN1CCN(Cc2ccc(Nc3ncc(F)c(-c4cc(F)c5nc(C)n(C(C)C)c5c4)n3)nc2)CC1 + CNC(C)C(=O)NC1CN(S(=O)(=O)c2cccc(S(=O)(=O)N3CCC4CCC(C(=O)NC(c5ccccc5)c5ccccc5)N4C(=O)C(NC(=O)C(C)NC)C3)c2)CCC2CCC(C(=O)NC(c3ccccc3)c3ccccc3)N2C1=O
> 1000 nM: IC50 [1] | IC50 [2] | IC50 [3] | IC50 [4] | IC50 [5]
inactive: viability, T/C (second compound 0.01 µM, first compound 0.00316 µM) 109% | viability, T/C (second compound 0.01 µM, first compound 0.01 µM) 117% | viability, T/C [6] 124% | viability, T/C [7] 112% | viability, T/C [8] 150% | viability, T/C [9] 128% | viability, T/C (second compound 0.0316 µM, first compound 0.00316 µM) 108% | viability, T/C (second compound 0.0316 µM, first compound 0.01 µM) 94% | viability, T/C [10] 114% | viability, T/C [11] 113% | viability, T/C [12] 117% | viability, T/C [13] 136% | viability, T/C (second compound 0.1 µM, first compound 0.00316 µM) 113% | viability, T/C (second compound 0.1 µM, first compound 0.01 µM) 95.5% | viability, T/C [14] 99.3% | viability, T/C [15] 108% | viability, T/C [16] 108% | viability, T/C [17] 117% | viability, T/C (second compound 0.316 µM, first compound 0.00316 µM) 114% | viability, T/C (second compound 0.316 µM, first compound 0.01 µM) 117% | viability, T/C [18] 110% | viability, T/C [19] 115% | viability, T/C [20] 107% | viability, T/C [21] 128% | viability, T/C (second compound 1 µM, first compound 0.00316 µM) 111% | viability, T/C (second compound 1 µM, first compound 0.01 µM) 112% | viability, T/C [22] 107% | viability, T/C [23] 115% | viability, T/C [24] 123% | viability, T/C [25] 127%

C#Cc1c(F)ccc2cc(O)cc(-c3ncc4c(N5CC6CCC(C5)N6)nc(OCC56CCCN5CC(F)C6)nc4c3F)c12 (centres undefined) + CNC(C)C(=O)NC1CN(S(=O)(=O)c2cccc(S(=O)(=O)N3CCC4CCC(C(=O)NC(c5ccccc5)c5ccccc5)N4C(=O)C(NC(=O)C(C)NC)C3)c2)CCC2CCC(C(=O)NC(c3ccccc3)c3ccccc3)N2C1=O
> 10000 nM: IC50 (curve of first compound, second compound 0.00316 µM) | IC50 [1] | IC50 [2] | IC50 [3] | IC50 [4] | IC50 [5]
inactive: viability, T/C (second compound 0.00316 µM, first compound 0.0316 µM) 97.9% | viability, T/C (second compound 0.00316 µM, first compound 0.1 µM) 101% | viability, T/C (second compound 0.00316 µM, first compound 0.316 µM) 93.2% | viability, T/C (second compound 0.00316 µM, first compound 1 µM) 87.7% | viability, T/C (second compound 0.00316 µM, first compound 3.16 µM) 102% | viability, T/C (second compound 0.00316 µM, first compound 10 µM) 104% | viability, T/C [6] 109% | viability, T/C [7] 98.3% | viability, T/C [8] 97.1% | viability, T/C [9] 99.7% | viability, T/C (second compound 0.01 µM, first compound 3.16 µM) 107% | viability, T/C (second compound 0.01 µM, first compound 10 µM) 93.3% | viability, T/C [10] 103% | viability, T/C [11] 97.7% | viability, T/C [12] 96.7% | viability, T/C [13] 106% | viability, T/C (second compound 0.0316 µM, first compound 3.16 µM) 114% | viability, T/C (second compound 0.0316 µM, first compound 10 µM) 90.8% | viability, T/C [14] 112% | viability, T/C [15] 103% | viability, T/C [16] 97.8% | viability, T/C [17] 97.8% | viability, T/C (second compound 0.1 µM, first compound 3.16 µM) 112% | viability, T/C (second compound 0.1 µM, first compound 10 µM) 96.6% | viability, T/C [18] 114% | viability, T/C [19] 101% | viability, T/C [20] 104% | viability, T/C [21] 104% | viability, T/C (second compound 0.316 µM, first compound 3.16 µM) 97.7% | viability, T/C (second compound 0.316 µM, first compound 10 µM) 114% | viability, T/C [22] 120% | viability, T/C [23] 107% | viability, T/C [24] 108% | viability, T/C [25] 95.7% | viability, T/C (second compound 1 µM, first compound 3.16 µM) 104% | viability, T/C (second compound 1 µM, first compound 10 µM) 114%

COc1c(OCCCN2CCOCC2)ccc2c3n(c(=NC(=O)c4cnc(N)nc4)nc12)CCN3
inactive: viability, T/C (compound 0.00316 µM) 114% and 91.5% and 87.9% | viability, T/C (compound 0.01 µM) 97.9% and 112% and 97.6% | viability, T/C (compound 0.0316 µM) 93.2% and 99.9% and 112% | viability, T/C (compound 0.1 µM) 93.2% and 52.7% and 108% | viability, T/C (compound 0.316 µM) 110% and 89.6% and 115% | viability, T/C (compound 1 µM) 81.5% and 92.5% and 114%
> 1000 nM: IC50 (curve of compound)
